Data published in patent US10173999B2, “Cyclic amine derivative and pharmaceutical use thereof” (Toray Industries, Inc., priority 2015, dated 2019).
“Also recorded” adds a separate entry of the source. Where a name gives a salt, the structure may show the parent alone.

Legend:
Cr1: CD (SD) rats = assay: Evaluation of safety in rat, two-week oral administration test; format: in vivo; conditions: oral
Experimental: As a test compound, the compound of Example 11 or Comparative Example 2 was used. The compound of Example 11 or Comparative Example 2 was administered orally to Cr1: CD (SD) rats (7 weeks old, female and male; from Charles River Laboratories, Inc.), for 2 weeks. Clinical observation, body weight measurement, food intake measurement, ophthalmologic examination (the compound of Example 11, alone), hematological examination, blood chemistry examination, urinalysis, bone marrow examination, pathological anatomical examination, organ weight measurement, histopathological examination and immunotoxicity test were carried out. In addition, toxicokinetics (TK) measurement was carried out on Day 1 and Day 14 after administration. It was confirmed that each test compound was exposed. The administration dose of a test compound was specified as 0, 250, 500, 1000 mg/kg/day and administration volume was specified as 10 mL/kg. As an administration solvent, phosphate-buffered saline was used for the compound of Example 11 and distilled water was used for the compound of Comparative Example 2.

[1] = system: human aortic smooth muscle cells (T/G HA-VSMG); assay: Inducibility of cytoplasmic vacuolation in human aortic smooth muscle cells; format: cell-based; conditions: Concentration: 1.0 mmol/L
Experimental: As a test compound, the compound of Example 3, 9, 11, 12 or compounds of Comparative Examples 2 to 6 were used. Canine aortic smooth muscle cells (Canine Aortic Smooth Muscle Cells, supply source: Toyobo Co., Ltd.) or human aortic smooth muscle cells of (T/G HA-VSMG, supply source: ATCC) were treated with a test compound (1.0 or 1.2 mmol/L in concentration) for 24 hours or 2 weeks. The cells were stained with HE, immunohistochemically for LAMP-2 or toluidine blue, and thereafter the presence or absence of cytoplasmic vacuolation was determined by using an optical microscope.

[2] = Stability test in dog liver microsomes; format: in vitro ADME; conditions: pH 7.4; dog liver microsomes 0.5 mg/mL, test compound 2 μmol/L, 37° C., 0-30 min; read-out: Hepatic intrinsic clearance, Dog
Experimental: Experiment was performed using the compound of Example 11, Comparative Example 1 or Comparative Example 6 as a test compound and human liver microsomes (from Xenotech), monkey liver microsomes (from Xenotech), dog liver microsomes (from Xenotech) or mouse liver microsomes (from Xenotech) as the liver microsomes.
The reagents to be used in the stability test in liver microsomes were prepared as follows. A D-glucose 6-phosphate disodium salt (hereinafter referred to as G6P) was dissolved with distilled water to prepare an aqueous solution of G6P (100 mmol/L). Glucose 6-phosphate dehydrogenase (1000 units) from Yeast (hereinafter referred to as G6PDH) was dissolved with distilled water (5 mL) to prepare an aqueous solution of G6PDH (200 units/mL). MgCl2 was dissolved with distilled water to prepare an aqueous solution of MgCl2 (100 mmol/L). […]
With respect to the chromatogram of each well obtained by LC/MS analysis or LC/MS/MS analysis, the test compound residual ratio (%) at each reaction time t (min) was calculated based on the peak area at the reaction time of 0 minute as 100%. […]

microsomal CLint at 2 μmol/L [2]	Compound	no observed adverse effect level (Cr1: CD (SD) rats; 2 weeks)	findings in examination items (Cr1: CD (SD) rats; up to 1000 mg/kg/day for 2 weeks)	Inducibility of cytoplasmic vacuolation ([1]; Treatment time: 2 weeks)	Inducibility of cytoplasmic vacuolation ([1]; Treatment time: 24 hours)
–	CN(C)C1CCN(C(=O)C[C@H](O)c2nccn2C)CC1 [Example 11, (S)-1-(4-(dimethylamino)piperidin-1-yl)-3-hydroxy-3-(1-methyl-1H-imidazol-2-yl)propan-1-one]	≥ 1000 mg/kg/day	abnormality was not observed	not observed; also recorded: Absent	Absent
6 µL/min/mg	CC(C)n1ccnc1CCC(=O)N1CCC(N(C)C)CC1 [Comparative Example 6, 1-(4-(dimethylamino)piperidin-1-yl)-3-(1-isopropyl-1H-imidazol-2-yl)propan-1-one hydrochloride]	–	–	–	–
